Laboratory results as given in patent US20240148821A1, “PHARMACEUTICAL USE OF CYCLIC PEPTIDE COMPOUND” (CHUGAI SEIYAKU KABUSHIKI KAISHA, priority 2021, published 2024).
Numbered stars: 1 amine (or outer) side, 2 acyl side, 3 side chain; on linkers, the order of the positions; unused ones are H or OH. Bridge positions count the residues as written; N and C are the ends. Square brackets hold non-standard residues; d marks the D form. Peptide text beside a SMILES is read from it. * marks the point of attachment. hPhe(3-Cl-4-CF3) = N[C@@H](CCc1ccc(C(F)(F)F)c(Cl)c1)C(=O)O; hPhe(3-F,4-CF3) = N[C@@H](CCc1ccc(C(F)(F)F)c(F)c1)C(=O)O; X27 = CN([C@@H](Cc1ccc(C(F)(F)F)nc1)C(=O)[*:2])[*:1]; NMePhe(4-Me) = CN[C@@H](Cc1ccc(C)cc1)C(=O)O; NMedβ3hAla = C[C@H](CC(=O)[*:2])N(C)[*:1]; NMeGly(cPent) = CN[C@H](C(=O)O)C1CCCC1; Phe(3-I) = N[C@@H](Cc1cccc(I)c1)C(=O)O; NMeCha = CN[C@@H](CC1CCCCC1)C(=O)O; NMeGly(cPr) = CN[C@H](C(=O)O)C1CC1; NMehLeu = CN[C@@H](CCC(C)C)C(=O)O; NMeChg = CN[C@H](C(=O)O)C1CCCCC1; NMeI = CC[C@H](C)[C@H](NC)C(=O)O; hPhe = N[C@@H](CCc1ccccc1)C(=O)O; NMeD = CN[C@@H](CC(=O)O)C(=O)O; NMeL = CN[C@@H](CC(C)C)C(=O)O; NMeV = CN[C@H](C(=O)O)C(C)C; d(β3hA) = C[C@@H](N)CC(=O)O; NMeS = CN[C@@H](CO)C(=O)O; Morpholide = C1CN(*)CCO1; NMeA = CN[C@@H](C)C(=O)O; NMeAib = CNC(C)(C)C(=O)O; Piperidide = C1CCN(*)CC1; Ac5c = NC1(C(=O)O)CCCC1; Aze = O=C(O)[C@@H]1CCN1; Isopentyl = CC(C)CC*; Sar = CNCC(=O)O; Propyl = CCC*

What follows are compounds tested on Human pancreatic cancer cell line AsPC-1 (G12D mutation Kras) (assay: AsPC-1 cell growth inhibition (AsPC-1 CGI)). Settings: read-out: AsPC-1 cell growth inhibition, 50% growth inhibitory concentration (IC50 value); 96 hours, CellTiter-Glo, values classified in ranges.
Assay type: cell-based
Protocol: Test compounds were serially dilated with dimethyl sulfoxide, and 200 nL was then dispensed to a U-bottom 96-well plate using Labcyte Echo. […] The cell suspension was dispensed to a. plate containing a test compound at 100 μL per well and incubated at 37° C. in a 5% carbon dioxide gas incubator. 96 hours later, 80 μL of CellTiter-Glo (Promega) was added to each well and fluorescence was measured.

Compared with CC[C@H](C)[C@@H]1NC(=O)[C@H](CC(C)C)N(C)C(=O)C[C@@H](C(=O)N(C)C)N(C)C(=O)[C@H]([C@@H](C)CC)N(C)C(=O)[C@H](C(C)C)NC(=O)[C@H](C)N(C)C(=O)[C@H](CCc2ccc(C(F)(F)F)c(Cl)c2)NC(=O)CN(C)C(=O)[C@H](Cc2ccc(C)cc2)N(C)C(=O)[C@@H]2CCN2C(=O)[C@H](C)N(C)C1=O [Compound 4] ([NMeL]I[NMeA][Aze][NMePhe(4-Me)][Sar][hPhe(3-Cl-4-CF3)][NMeA]V[NMeI][NMeD]-NMe2; lactam N-11), CC[C@H](C)[C@@H]1NC(=O)[C@H](CC(C)C)N(C)C(=O)C[C@@H](C(=O)N(C)C)N(C)C(=O)[C@H]([C@@H](C)CC)N(C)C(=O)C2(CCCC2)NC(=O)[C@H](COCCC(C)C)N(C)C(=O)[C@H](CCc2ccc(C(F)(F)F)c(Cl)c2)NC(=O)CN(C)C(=O)[C@H](Cc2ccc(C)cc2)N(C)C(=O)[C@@H]2CCN2C(=O)[C@H](C)N(C)C1=O [Compound 27] ([NMeL]I[NMeA][Aze][NMePhe(4-Me)][Sar][hPhe(3-Cl-4-CF3)][NMeS](Isopentyl)[Ac5c][NMeI][NMeD]-NMe2; lactam N-11) is lower in IC50: > 500 nM for the first, ≤ 20 nM for the second. The second is the more potent here.

CC[C@H](C)[C@@H]1NC(=O)[C@H](CC(C)C)N(C)C(=O)C[C@@H](C(=O)N2CCCCC2)N(C)C(=O)[C@H](C2CCCCC2)N(C)C(=O)C2(CCCC2)NC(=O)[C@H](Cc2ccc(C(F)(F)F)nc2)N(C)C(=O)[C@H](CCc2ccc(C(F)(F)F)c(Cl)c2)NC(=O)CN(C)C(=O)[C@H](CC2CCCCC2)N(C)C(=O)[C@@H]2CCN2C(=O)CN(C)C1=O [Compound 6] ([NMeL]I[Sar][Aze][NMeCha][Sar][hPhe(3-Cl-4-CF3)][X27][Ac5c][NMeChg][NMeD]-Piperidide; lactam N-11) and COC[C@@H]1NC(=O)[C@H](CC(C)C)N(C)C(=O)C[C@@H](C(=O)N2CCCCC2)N(C)C(=O)[C@H](C(C)C)N(C)C(=O)C2(CCCC2)NC(=O)[C@@H]2CCCN2C(=O)[C@H](CCc2ccc(C(F)(F)F)c(Cl)c2)NC(=O)CN(C)C(=O)[C@H](CC2CCCCC2)N(C)C(=O)[C@@H]2CCN2C(=O)[C@H](C)N(C)C1=O [Compound 7] ([NMeL]S(Me)[NMeA][Aze][NMeCha][Sar][hPhe(3-Cl-4-CF3)]P[Ac5c][NMeV][NMeD]-Piperidide; lactam N-11) cannot be ordered by IC50: > 500 nM for the first, > 500 nM for the second.

Going from CCCOC[C@H]1C(=O)N(C)CC(=O)N[C@@H](CCc2ccc(C(F)(F)F)c(F)c2)C(=O)N2CCC[C@H]2C(=O)NC2(CCCC2)C(=O)N(C)[C@@H](C2CCCC2)C(=O)N(C)[C@H](C(=O)N2CCOCC2)CC(=O)N(C)[C@@H](CC(C)C)C(=O)N[C@@H]([C@@H](C)CC)C(=O)N(C)[C@@H](C)C(=O)N2CC[C@H]2C(=O)N1C [Compound 9] ([NMeL]I[NMeA][Aze][NMeS](Propyl)[Sar][hPhe(3-F,4-CF3)]P[Ac5c][NMeGly(cPent)][NMeD]-Morpholide; lactam N-11) to CC[C@H](C)[C@@H]1NC(=O)[C@H](CC(C)C)N(C)C(=O)C[C@@H](C)NC(=O)[C@H](C2CC2)N(C)C(=O)C2(CCCC2)NC(=O)[C@@H]2CCCN2C(=O)[C@H](CCc2ccc(C(F)(F)F)c(Cl)c2)NC(=O)CN(C)C(=O)[C@H](CC2CCCCC2)N(C)C(=O)CN(C)C(=O)CN(C)C1=O [Compound 14] (cyclo([Ac5c][NMeGly(cPr)][d(β3hA)][NMeL]I[Sar][Sar][NMeCha][Sar][hPhe(3-Cl-4-CF3)]P)), the IC50 rises from ≤ 20 nM to > 500 nM.

CC[C@H](C)[C@@H]1NC(=O)[C@H](CC(C)C)N(C)C(=O)C[C@@H](C(=O)N2CCCCC2)N(C)C(=O)[C@H](CC(C)C)NC(=O)C(C)(C)N(C)C(=O)[C@H](CCc2ccccc2)NC(=O)[C@H](Cc2cccc(I)c2)NC(=O)CN(C)C(=O)[C@H](Cc2ccc(C)cc2)N(C)C(=O)CN(C)C(=O)CN(C)C1=O [Compound 13] ([NMeL]I[Sar][Sar][NMePhe(4-Me)][Sar][Phe(3-I)][hPhe][NMeAib]L[NMeD]-Piperidide; lactam N-11) and CC[C@H](C)[C@@H]1NC(=O)[C@H](CC(C)C)N(C)C(=O)C[C@@H](C)N(C)C(=O)[C@H](CCC(C)C)N(C)C(=O)C2(CCCC2)NC(=O)[C@@H]2CCCN2C(=O)[C@H](CCc2ccc(C(F)(F)F)c(Cl)c2)NC(=O)CN(C)C(=O)[C@H](CC2CCCCC2)N(C)C(=O)CN(C)C(=O)CN(C)C1=O [Compound 22] (cyclo([Ac5c][NMehLeu][NMedβ3hAla][NMeL]I[Sar][Sar][NMeCha][Sar][hPhe(3-Cl-4-CF3)]P)) cannot be ordered by IC50: > 500 nM for the first, > 500 nM for the second.

With CC[C@H](C)[C@@H]1NC(=O)[C@H](CC(C)C)N(C)C(=O)C[C@@H](C(=O)N(C)C)N(C)C(=O)[C@H](C2CCCC2)N(C)C(=O)[C@H](C(C)C)NC(=O)[C@@H](C)NC(=O)[C@H](CCc2ccc(C(F)(F)F)c(Cl)c2)NC(=O)CN(C)C(=O)[C@H](CC2CCCCC2)N(C)C(=O)[C@@H]2CCN2C(=O)[C@H](C)N(C)C1=O [Compound 24] ([NMeL]I[NMeA][Aze][NMeCha][Sar][hPhe(3-Cl-4-CF3)][dA]V[NMeGly(cPent)][NMeD]-NMe2; lactam N-11) the IC50 was > 500 nM.
